Data set [1] is described as follows: Maximum tolerated dose, daily×5 schedule. The data set is classed as in vivo, mice.
Data set [2] concerns TC32 Ewing sarcoma cells, expressing EWS-FLI1. Kind of data set: Growth inhibition assay, TC32 cells. The data set is classed as cell-based. The following applies: ratio of GI50 PC3 to TC32.
A short description of data set [3]: IV bolus pharmacokinetics in monkey. The data set is classed as in vivo. The conditions noted are these: single monkey, IV bolus 10 mg/kg, 2-compartment modeling. On the procedure:
Reference is made to FIGS. 6A and 6B. MTM and exemplary compound MTM(20) were each administered as an IV bolus injection (10 mg/kg) to assess the pharmacokinetics in a single monkey. Estimation of the area under the curve (AUC) was done by 2-compartment modeling. MTM20 has ˜3-fold lower clearance (CL) than mithramycin, which corresponds to an equivalent increase in exposure as measured by the AUC.

The test system of data set [4] is TC-32 cells (EWS-FLI1+) subcutaneously implanted. Put plainly: Efficacy studies in mouse xenografts (TC-32). The data set is classed as in vivo, mice. The following applies: for Significant? survival vs. Vehicle: overall significance level 0.05. As for the experimental part: Efficacy studies in mouse xenografts. TC-32 cells were suspended in 1:1 (v/v) media: Matrigel on ice and injected subcutaneously into the flank of female immunocompromised athymic nude NU/NU mice at a density of 1.0×10^6 cells per 100 μL. Mice with tumors of at least 75 mm^3 were randomly assigned to treatment groups, n=8-12 mice per group and n=6-10 mice per vehicle control treated group. Tumor volumes were monitored every 2-3 days and mice were euthanized once tumor volumes reached 1500 mm^3. In some experiments, tumors were allowed to grow to 20 mm in one direction prior to animals being removed from the study. Average tumor volume among the replicates were plotted, as well as survival plots, using GraphPad Prism 7.03 software. All animal studies were conducted under approved institutional animal care and use committee (IACUC) protocol.
Reference is made to FIGS. 3A-3G, which include data from an efficacy study involving exemplary compound MTM (20). TC-32 cells (EWS-FLI1+) were subcutaneously implanted in female NU/NU mice. Gray shadding starting at 0 days. indicates dosing window. FIG. 3B includes MTM20 at 21 mg/kg, FIG. 3C includes MTM20 at 15 mg/kg, FIG. 3D includes vehicle (control), FIG. 3E includes MTM (control) at 1 mg/kg, and FIG. 3F includes MTM (contro) at 0.65 mg/kg. Dosing route: IV bolus; Schedule: q2d×8.
Reference is made to FIGS. 4A and 4B, and Table 2, which include data from an efficacy/survival study involving exemplary compound MTM(20). TC-32 cells (EWS-FLI1+) were subcutaneously implanted in female NU/NU mice. FIG. 4A includes survival curves and FIG. 4B includes median survival plots of mice (n=6-7/group).
Further Efficacy Studies. Additional efficacy studies are ongoing with MTM20 at a daily schedule (total of 5 doses).
In comparison, nine of 10 tumor volumes, in the control group have increased by 50% or more and one increased approximately 15% above baseline.
In comparison all tumors in the control group grow by 30% or more relative to baseline.

The nature of data set [5]: Hematology profile in monkeys. The conditions noted are these: IV bolus 15 mg/kg. As for the experimental part: Reference is made to FIGS. 7A-7F, which include include data for a hematology profile in monkeys. MTM and MTM20 were dosed as an IV bolus injection (10 mg/kg and 15 mg/kg) in two monkeys each to assess toxicity. […] Gray areas are reference values.
In another data set the target is T1, EWS-FLI1 (Homo sapiens, UniProt Q01543+Q01844).
T1 sequence (Q01543 276-373 limits assumed): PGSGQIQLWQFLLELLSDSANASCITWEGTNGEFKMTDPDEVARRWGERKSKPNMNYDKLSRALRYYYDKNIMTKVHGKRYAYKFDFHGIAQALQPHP
The following applies: Grohar et al. 2011; cited from earlier work.

With `COC(=O)C(Cc1c[nH]c2ccccc12)NC(=O)CON=C(C(O)C(C)O)C(OC)C1Cc2cc3cc(OC4CC(OC5CC(O)C(O)C(C)O5)C(O)C(C)O4)c(C)c(O)c3c(O)c2C(=O)C1OC1CC(OC2CC(OC3CC(C)(O)C(O)C(C)O3)C(O)C(C)O2)C(O)C(C)O1` (stereo not shown) [MTM (20)], the “full MTD of the daily×5 schedule” value in data set [1] is recorded as 24 mg/kg. Also, the “PC:TC32 (cellular selectivity)” value in data set [2] amounted to 24.5. For the same compound, the “lower clearance (CL) than mithramycin” value in data set [3] is given as ~3 fold. For the same compound, the “reduction in tumor volume” value in data set [4] (Experiment 1: 14.7 mg/kg (⅔ of MTD), daily schedule 5 doses, 2 days after end of treatment, 7 animals) is on record as “greater than 50%”. The “tumor volumes decreased, of the original tumor volume” value in data set [4] (Experiment 2: 24 mg/kg (full MTD) daily×5, following the 4th dose) is recorded as 10-70%. Also, the “Significant? survival” value in data set [4] (MTM20 - 2/3MTD vs. MTM - 2/3MT), in data set [4] (MTM20 - 2/3MTD vs. MTM - MTD), in data set [4] (MTM20 - MTD vs. MTM20 - 2/3MTD), in data set [4] (MTM20 - MTD vs. MTM - 2/3MTD) and in data set [4] (MTM20 - MTD vs. MTM - MTD) was “No” throughout. Moreover, the “Significant? survival vs. Vehicle” value in data set [4] (at 2/3MTD) and in data set [4] (at MTD) was “Yes” each time. Moreover, in data set [4] (daily schedule (5 doses) compared to q2Dx8), the “initial response with new dosing schedules” value is on record as “significantly improved”. Besides, in data set [4] (daily×5×2 weeks (qDx5×2w)), the “predicted efficacy of standard clinical dosing regimen” value is “notably efficacious and potentially curative”.

For `CO[C@H](C(=O)[C@@H](O)[C@@H](C)O)[C@@H]1Cc2cc3cc(O[C@H]4C[C@@H](O[C@H]5C[C@@H](O)[C@H](O)[C@@H](C)O5)[C@H](O)[C@@H](C)O4)c(C)c(O)c3c(O)c2C(=O)[C@H]1O[C@H]1C[C@@H](O[C@H]2C[C@@H](O[C@H]3C[C@](C)(O)[C@H](O)[C@@H](C)O3)[C@@H](O)[C@@H](C)O2)[C@H](O)[C@@H](C)O1` [MTM, Mithramycin], the platelets counts entry in data set [5] was “significant reduction in platelets counts”. Moreover, the “potency as inhibitor of EWS-FLI1 in Ewing sarcoma cells” value on EWS-FLI1 is listed as “low-nM”. Besides, the “Significant? survival” value in data set [4] (MTM - MTD vs. MTM - 2/3MTD) is “No”. For the same compound, the “Significant? survival vs. Vehicle” value in data set [4] (at 2/3MTD) and in data set [4] (at MTD) was “No” in each case.

Values taken from patent publication US12486300B2, “Mithramycin oxime derivatives having increased selectivity and anti-cancer activity” (University of Kentucky Research Foundation, priority 2018, dated 2025).
